In US8802720B2, “Acylamino-substituted fused cyclopentanecarboxylic acid derivatives and their use as pharmaceuticals” (SANOFI, priority 2008, dated 2014):

Molecular target: human Edg-2 receptor (LPA1 receptor) (Homo sapiens, UniProt Q92633)
Test: Edg-2 receptor inhibition by FLIPR calcium fluorescence measurement (LPA-mediated calcium liberation)
Type: cell-based
Conditions: CHO cells stably overexpressing human Edg-2 receptor; LPA 18:1 100 nM; fluo-4 fluorescence; triplicate; read-out: Inhibitory concentrations IC50 for inhibition of the Edg-2 receptor
Method in brief: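 CHO cells stably overexpressing human Edg-2 were fluo-4 loaded and pre-incubated ~5 min with compound (≤0.3% DMSO) in HBSS/HEPES/probenecid, pH 7.5. Then LPA 18:1 at 100 nM final was added. Peak calcium fluorescence over ~3 min, baseline-corrected versus DMSO, gave % inhibition in triplicate and IC50.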

Sequence of human Edg-2 receptor (LPA1 receptor) (Q92633 whole entry): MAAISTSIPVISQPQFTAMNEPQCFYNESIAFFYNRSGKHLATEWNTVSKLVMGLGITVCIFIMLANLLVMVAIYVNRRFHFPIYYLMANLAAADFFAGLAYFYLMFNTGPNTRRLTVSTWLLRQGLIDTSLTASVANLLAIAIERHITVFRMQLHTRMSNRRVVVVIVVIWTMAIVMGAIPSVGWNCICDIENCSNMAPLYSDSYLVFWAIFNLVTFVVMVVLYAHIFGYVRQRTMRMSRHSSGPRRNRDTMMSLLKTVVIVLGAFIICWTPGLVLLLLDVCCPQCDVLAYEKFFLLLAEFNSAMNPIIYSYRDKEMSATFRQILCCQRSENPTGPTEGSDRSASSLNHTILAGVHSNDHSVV

SMILES	IC50 [nM]
COc1ccc(C(=O)NC2(C(=O)O)Cc3ccccc3C2)cc1OCCc1cccc(F)c1 [Example 131]	< 100
COc1ccc(C(=O)NC2(C(=O)O)Cc3ccccc3C2)cc1OCCc1cccc(Cl)c1 [Example 132]	< 100
COc1cccc(CCOc2cc(C(=O)NC3(C(=O)O)Cc4ccccc4C3)ccc2OC)c1 [Example 133]	100 to 1000
COc1ccc(C(=O)NC2(C(=O)O)Cc3ccccc3C2)cc1OCCc1ccccc1C [Example 134]	1000 to 30000
COc1ccc(C(=O)NC2(C(=O)O)Cc3ccccc3C2)cc1OCCc1ccc(C)cc1 [Example 135]	1000 to 30000
COc1ccc(C(=O)NC2(C(=O)O)Cc3ccccc3C2)cc1OCCc1ccc(F)cc1 [Example 136]	1000 to 30000
COc1ccc(CCOc2cc(C(=O)NC3(C(=O)O)Cc4ccccc4C3)ccc2OC)cc1 [Example 137]	1000 to 30000
COc1ccccc1CCOc1cc(C(=O)NC2(C(=O)O)Cc3ccccc3C2)ccc1OC [Example 138]	1000 to 30000
COc1ccc(C(=O)NC2(C(=O)O)Cc3ccccc3C2)cc1OCCc1ccccc1F [Example 139]	100 to 1000
COc1ccc(C(=O)NC2(C(=O)O)Cc3ccccc3C2)cc1OCCc1cc(C)ccc1C [Example 140]	1000 to 30000
Cc1cccc(CCOc2cccc(C(=O)NC3(C(=O)O)Cc4ccccc4C3)c2)c1 [Example 141]	1000 to 30000
COc1ccc(C(=O)NC2(C(=O)O)Cc3ccccc3C2)cc1OC(C)Cc1ccccc1 (stereo not shown) [Example 142]	1000 to 30000
COc1ccc(C(=O)NC2(C(=O)O)Cc3ccccc3C2)cc1OCCc1cccc(Br)c1 [Example 143]	< 100
COc1ccc(C(=O)NC2(C(=O)O)Cc3ccccc3C2)cc1OCC(C)c1ccccc1 (stereo not shown) [Example 144]	< 100
Cc1cccc(CCOc2cc(C(=O)NC3(C(=O)O)Cc4ccccc4C3)ccc2F)c1 [Example 145]	100 to 1000
COc1ccc(C(=O)NC2(C(=O)O)Cc3ccccc3C2)cc1OCCc1ccsc1 [Example 146]	100 to 1000
COc1ccc(C(=O)NC2(C(=O)O)Cc3ccccc3C2)cc1OCCc1cccs1 [Example 147]	100 to 1000
COc1ccc(C(=O)NC2(C(=O)O)Cc3ccccc3C2)cc1OCCc1ccccn1 [Example 148]	1000 to 30000
COc1ccc(C(=O)NC2(C(=O)O)Cc3ccccc3C2)cc1OCCc1ccccc1Cl [Example 149]	< 100
COc1ccc(C(=O)NC2(C(=O)O)Cc3ccccc3C2)cc1OCCC1CCCC1 [Example 150]	1000 to 30000
COc1ccc(C(=O)NC2(C(=O)O)Cc3ccccc3C2)cc1OCCCc1ccccc1 [Example 151]	1000 to 30000
COc1ccc(C(=O)NC2(C(=O)O)Cc3ccccc3C2)cc1OCCc1c(F)cccc1Cl [Example 152]	< 100
COc1ccc(C(=O)NC2(C(=O)O)Cc3ccccc3C2)cc1OCCc1cccc(Cl)c1F [Example 153]	100 to 1000
COc1ccc(C(=O)NC2(C(=O)O)Cc3ccccc3C2)cc1OCCc1cc(C(F)(F)F)ccc1F [Example 154]	< 100
COc1ccc(C(=O)NC2(C(=O)O)Cc3ccccc3C2)cc1OCCc1cccc(C(F)(F)F)c1F [Example 155]	1000 to 30000
COc1ccc(C(=O)NC2(C(=O)O)Cc3ccc(Br)cc3C2)cc1OCCc1cccc(C)c1 (stereo not shown) [Example 156, 5-Bromo-2-[4-methoxy-3-(2-m-tolyl-ethoxy)-benzoylamino]-indane-2-carboxylic acid]	< 100
COc1ccc(C(=O)NC2(C(=O)O)Cc3ccc(F)cc3C2)cc1OCCc1cccc(C)c1 (stereo not shown) [Example 157, 5-Fluoro-2-[4-methoxy-3-(2-m-tolyl-ethoxy)-benzoylamino]-indane-2-carboxylic acid]	< 100
COc1ccc(C(=O)NC2(C(=O)O)Cc3cc(C)c(C)cc3C2)cc1OCCc1cccc(C)c1 [Example 158, 2-[4-Methoxy-3-(2-m-tolyl-ethoxy)-benzoylamino]-5,6-dimethyl-indane-2-carboxylic acid]	100 to 1000
